In patent US8846670B2, “1,2,3,4-tetrahydro-pyrimido(1,2-a)pyrimidin-6-one derivatives, preparation thereof, and pharmaceutical use thereof” (priority 2009, dated 2014) one finds IC50 data, which are given here for 19 compounds.

The test system of assay [1] is translocation of the LC3 protein in Hela GFP-LC3 cells. Put plainly: Study of the translocation of the LC3 protein in Hela human cells, measured by image analysis cytometry (Test C, autophagy). In kind it is cell-based. To be noted: 2 h, Hela GFP-LC3 cells with LC3 granulations, EBSS + 10 μM hydroxychloroquine, absolute IC50. Here is the method: The inhibitory activity of the molecules on autophagy is measured by the translocation of the LC3 protein from the cytoplasm to the autophagosomes. For this, Hela cells were transfected with a vector encoding the chimeric protein GFP-LC3. A Hela clone stably expressing the GFP-LC3 protein was selected.
Study of the Translocation of the LC3 Protein in Hela Human Cells, Measured by Image Analysis Cytometry (Test C):
On day 2, the cells are washed twice with EBSS (Sigma #E3024). The cells are then incubated in EBSS, 10 μM of hydroxychloroquine and test products for 2 h at 37° C. in the presence of 5% CO2. The molecules are diluted in dimethyl sulphoxide (DMSO Sigma #D2650), the final DMSO percentage being 0.1%.
After this incubation, the cells are fixed with 4% paraformaldehyde (Sigma #HT501128 4 L) for 10 min. […] The 96-well plates are then read with the iCyte image analysis cytometer (Compucyte).
Two independent experiments make it possible to calculate the mean of the IC50 values.

The test system of assay [2] is AKT protein phosphorylated on serine 473 (P-AKT-S473) in PC3 human prostate carcinoma line. The experiment in a line: Study of pAKT expression in PC3 human prostate carcinoma cells measured by the MSD Multi-spot Biomarker Detection technique (Test B). In kind it is cell-based. The conditions noted are these: MSD sandwich immunoassay, 1 to 2 h incubation, absolute IC50, mean of 2 experiments. How it is done:
The inhibitory activity of the molecules on AKT phosphorylation is measured either by western blotting using the technique described below, or by the MSD Multi-spot Biomarker detection technique from Meso Scale Discovery also described below.
Study of pAKT Expression in PC3Human Prostate Carcinoma Cells Measured by the MSD Multi-Spot Biomarker Detection Technique from Meso Scale Discovery (Test B):
The primary antibody specific for P-AKT-S473 (Kit #K151CAD) is coated onto an electrode in each well of the 96-well plates of the MSD kit: after the addition of a protein lysate to each well, the signal is visualised by adding a secondary detection antibody labelled with an electrochemiluminescent compound. The procedure followed is that described in the kit.
On day 2, the cells are incubated in the presence or absence of the test products for 1 to 2 h at 37° C. in the presence of 5% of CO2. The molecules, diluted in dimethyl sulphoxide (DMSO Sigma #D2650), are added from a 20-times concentrated stock solution, the final percentage of DMSO being 0.1%.
After this incubation, the cells are lysed for the preparation of the proteins. […] At this stage, the plates containing the lysates can be frozen at −20° C. or at −80° C.
The wells of the 96-well plates of the MSD kit are saturated for 1 h at ambient temperature with the blocking solution of the MSD kit. Four washes are carried out with 150 μl of Tris Wash Buffer of the MSD kit. The lysates previously prepared are transferred into the 96-well multi-spot plates of the MSD kit and incubated for 1 h at ambient temperature, with shaking. Four washes are carried out with 150 μl of Tris Wash Buffer of the MSD kit. 25 μl of the MSD sulfo-tag detection antibody solution are added to the wells and incubated for 1 h at ambient temperature, with shaking. Four washes are carried out with 150 μl of Tris Wash Buffer of the MSD kit. 150 μl of Read Buffer of the MSD kit are added to the wells and the plates are read immediately on the S12400 instrument from Meso Scale Discovery.
The instrument measures a signal for each well. Wells without cells and containing the lysis buffer serve to determine the background noise that will be subtracted from all the measurements (min). The wells containing cells in the absence of product and in the presence of 0.1% DMSO are considered to be the 100% signal (max). The percentage inhibition is calculated for each concentration of test product according to the following formula: (1−((test−min)/(max−min)))×100.
2 independent experiments make it possible to calculate the mean of the IC50 values.

[3] abbreviates: Homo sapiens, PC-3, P-AKT-S473 in PC3 cells.

Turning to `O=c1cc(N2CCOCC2)nc2n1CC[C@@H](C(F)(F)F)N2c1ccc(Cl)cc1` [Example 36, (8S)-9-(4-chlorophenyl)-2-(morpholin-4-yl)-8-(trifluoro-methyl)-6,7,8,9-tetrahydro-4H-pyrimido[1,2-a]pyrimidin-4-one], the IC50 (usually the concentration that inhibits the measured activity by half) in assay [1] (Homo sapiens, HeLa) amounted to 157 nM; in assay [2] (setting [3]) it was 18 nM.

Consider `C[C@H](c1ccc(Br)cc1)N1c2nc(N3CCOCC3)cc(=O)n2CC[C@H]1C(F)(F)F` (single isomer, unassigned) [Example 11, (8S)-9-[(1S or 1R)-1-(4-bromophenyl)ethyl]-2-(morpholin-4-yl)-8-(trifluoromethyl)-6,7,8,9-tetrahydro-4H-pyrimido[1,2-a]pyrimidin-4-one], for which the IC50 in assay [1] (Homo sapiens, HeLa) is 319 nM; in assay [2] (setting [3]) it was 46 nM.

In the case of `O=c1cc(N2CCOCC2)nc2n1CC[C@@H](C(F)(F)F)N2Cc1cc(F)cc(F)c1` [Example 29, (8S)-9-(3,5-difluorobenzyl)-2-(morpholin-4-yl)-8-(trifluoro-methyl)-6,7,8,9-tetrahydro-4H-pyrimido[1,2-a]pyrimidin-4-one], the IC50 in assay [1] (Homo sapiens, HeLa) is over 1000 nM; in assay [2] (setting [3]), 22 nM.

Take `O=c1cc(N2CCOCC2)nc2n1CC[C@@H](C(F)(F)F)N2Cc1csc2ccc(Cl)cc12` [Example 32, (8S)-9-[(5-chloro-1-benzothiophen-3-yl)methyl]-2-(morpholin-4-yl)-8-(trifluoromethyl)-6,7,8,9-tetrahydro-4H-pyrimido[1,2-a]pyrimidin-4-one]: the IC50 worked out at 780 nM in assay [1] (Homo sapiens, HeLa) and 33 nM in assay [2] (setting [3]).

With `O=C(c1ccccc1F)N1c2nc(N3CCOCC3)cc(=O)n2CC[C@H]1C(F)(F)F` [Example 28, (8S)-9-[(2-fluorophenyl)carbonyl]-2-(morpholin-4-yl)-8-(trifluoromethyl)-6,7,8,9-tetrahydro-4H-pyrimido[1,2-a]pyrimidin-4-one], the IC50 in assay [1] (Homo sapiens, HeLa) was over 10000 nM; in assay [2] (setting [3]) it was 33 nM.

On to `O=c1cc(N2CCOCC2)nc2n1CC[C@@H](C(F)(F)F)N2Cc1cccc(F)c1` [Example 23, (8S)-9-(3-fluorobenzyl)-2-(morpholin-4-yl)-8-(trifluoromethyl)-6,7,8,9-tetrahydro-4H-pyrimido[1,2-a]pyrimidin-4-one], for which the half-inhibitory concentration (IC50) in assay [1] (Homo sapiens, HeLa) turned out to be 663 nM; in assay [2] (setting [3]), 24 nM.

For `O=c1c(F)c(N2CCOCC2)nc2n1CC[C@@H](C(F)(F)F)N2Cc1ccccc1` [Example 41, (8S)-9-benzyl-3-fluoro-2-(morpholin-4-yl)-8-(trifluoro-methyl)-6,7,8,9-tetrahydro-4 H-pyrimido[1,2-a]pyrimidin-4-one], the IC50 amounted to 192 nM in assay [1] (Homo sapiens, HeLa) and 4 nM in assay [2] (setting [3]).

As to `CC(c1ccc(F)cc1)N1c2nc(N3CCOCC3)cc(=O)n2CC[C@H]1C(F)(F)F` (single isomer, unassigned) [Example 33, (8S)-9-[(1R or 1S)-1-(4-fluorophenyl)ethyl]-2-(morpholin-4-yl)-8-(trifluoromethyl)-6,7,8,9-tetrahydro-4H-pyrimido[1,2-a]pyrimidin-4-one], the IC50 came to 221 nM in assay [1] (Homo sapiens, HeLa) and 24 nM in assay [2] (setting [3]).

Regarding `O=C(Cc1ccccc1)N1c2nc(N3CCOCC3)cc(=O)n2CC[C@H]1C(F)(F)F` [Example 45, (8S)-2-(morpholin-4-yl)-9-(phenylacetyl)-8-(trifluoromethyl)-6,7,8,9-tetrahydro-4 H-pyrimido[1,2-a]pyrimidin-4-one], the IC50 in assay [1] (Homo sapiens, HeLa) is over 1000 nM; in assay [2] (setting [3]) it was 14 nM.

As for `O=c1cc(N2CCOCC2)nc2n1CC[C@@H](C(F)(F)F)N2Cc1ccc(F)c(F)c1F` [Example 31, (8S)-2-(morpholin-4-yl)-9-(2,3,4-trifluorobenzyl)-8-(trifluoro-methyl)-6,7,8,9-tetrahydro-4H-pyrimido[1,2-a]pyrimidin-4-one], the IC50 in assay [1] (Homo sapiens, HeLa) was 557 nM; in assay [2] (setting [3]), 150 nM.

With `Cc1ccc(N2c3nc(N4CCOCC4)cc(=O)n3CC[C@H]2C(F)(F)F)cc1` [Example 21, (8S)-9-(4-methylphenyl)-2-(morpholin-4-yl)-8-(trifluoro-methyl)-6,7,8,9-tetrahydro-4H-pyrimido[1,2-a]pyrimidin-4-one], the IC50 in assay [1] (Homo sapiens, HeLa) was 157 nM; in assay [2] (setting [3]), 24 nM.

Take `O=C(c1ccc(F)cc1F)N1c2nc(N3CCOCC3)cc(=O)n2CC[C@H]1C(F)(F)F` [Example 44, (8S)-9-[(2,4-difluorophenyl)carbonyl]-2-(morpholin-4-yl)-8-(trifluoromethyl)-6,7,8,9-tetrahydro-4 H-pyrimido[1,2-a]pyrimidin-4-one]: the IC50 in assay [1] (Homo sapiens, HeLa) was over 1000 nM; in assay [2] (setting [3]) it was 108 nM.

For `O=c1cc(N2CCOCC2)nc2n1CC[C@@H](C(F)(F)F)N2CCc1cccc(Cl)c1` [Example 46, (8S)-9-[2-(3-chlorophenyl)ethyl]-2-(morpholin-4-yl)-8-(trifluoromethyl)-6,7,8,9-tetrahydro-4 H-pyrimido[1,2-a]pyrimidin-4-one], the IC50 in assay [1] (Homo sapiens, HeLa) was found to be 16 nM; in assay [2] (setting [3]), 4 nM.

With `O=c1cc(N2CCOCC2)nc2n1CC[C@@H](C(F)(F)F)N2Cc1ccc(F)cc1F` [Example 30, (8S)-9-(2,4-difluorobenzyl)-2-(morpholin-4-yl)-8-(trifluoro-methyl)-6,7,8,9-tetrahydro-4H-pyrimido[1,2-a]pyrimidin-4-one], the IC50 worked out at 212 nM in assay [1] (Homo sapiens, HeLa) and 43 nM in assay [2] (setting [3]).

`CC(c1ccc(F)cc1)N1c2nc(N3CCOCC3)cc(=O)n2CC[C@H]1C(F)(F)F` (single isomer, unassigned) [Example 34, (8S)-9-[(1R or 1S)-1-(4-fluorophenyl)ethyl]-2-(morpholin-4-yl)-8-(trifluoromethyl)-6,7,8,9-tetrahydro-4H-pyrimido[1,2-a]pyrimidin-4-one]: the IC50 was found to be 35 nM in assay [1] and 22 nM in assay [2] (P-AKT-S473 in PC3 cells).

With `O=C(c1c(F)cccc1F)N1c2nc(N3CCOCC3)cc(=O)n2CC[C@H]1C(F)(F)F` [Example 43, (8S)-9-[(2,6-difluorophenyl)carbonyl]-2-(morpholin-4-yl)-8-(trifluoromethyl)-6,7,8,9-tetrahydro-4 H-pyrimido[1,2-a]pyrimidin-4-one], the IC50 in assay [1] (Homo sapiens, HeLa) came out at 986 nM; in assay [2] (setting [3]), 16 nM.

For `O=c1cc(N2CCOCC2)nc2n1CC[C@@H](C(F)(F)F)N2c1ccc(C(F)(F)F)cc1` [Example 37, (8S)-2-(morpholin-4-yl)-8-(trifluoromethyl)-9-[4-(trifluoro-methyl)phenyl]-6,7,8,9-tetrahydro-4H-pyrimido[1,2-a]pyrimidin-4-one], the half-inhibitory concentration (IC50) worked out at 270 nM in assay [1] (Homo sapiens, HeLa) and 18 nM in assay [2] (setting [3]).

As for `CC(c1ccccc1F)N1c2nc(N3CCOCC3)cc(=O)n2CC[C@H]1C(F)(F)F` (single isomer, unassigned) [Example 38, (8S)-9-[(1R or 1S)-1-(2-fluorophenyl)ethyl]-2-(morpholin-4-yl)-8-(trifluoromethyl)-6,7,8,9-tetrahydro-4 H-pyrimido[1,2-a]pyrimidin-4-one], the IC50 worked out at 167 nM in assay [1] (Homo sapiens, HeLa) and 2 nM in assay [2] (P-AKT-S473 in PC3 cells).

For the compound `O=c1cc(N2CCOCC2)nc2n1CC[C@@H](C(F)(F)F)N2c1cccnc1` [Example 19, (S)-2-morpholin-4-yl-9-pyridin-3-yl-8-trifluoromethyl-6,7,8,9-tetrahydropyrimido[1,2-a]pyrimidin-4-one], the IC50 was over 1000 nM in assay [1] (Homo sapiens, HeLa) and 39 nM in assay [2] (setting [3]).
